Measurements taken from patent US7851000B2, “Taste potentiator compositions and edible confectionery and chewing gum products containing same” (Cadbury Adams USA LLC, priority 2005, dated 2010).

Assays:
expert panel members = experiment: Sucrose Equivalent Value (SEV), perceived sweetness matched to stock sucrose solutions; format: in vivo; settings: for effect on sweetness of sucrose solution (dose response curve): 0 to 1000 ppm in pH 3.2 buffered 5% sucrose solution; for effect on sweetness (SEV) of sucrose solutions, comparison of forms: 500 ppm in pH 3.2 buffered solutions with 0%, 3%, 5%, 7% and 9% sucrose; for SEV (%): 500 ppm potentiator alone in pH 3.2 buffered 5% sucrose solution
Protocol: One method of measuring the perceived sweetness of a solution is to match it with a stock sucrose solution of known concentration. In the present experiments, the compound of interest is added at a predetermined concentration to a pH 3.2 buffered solution containing 5% sucrose. A number of expert panel members then taste the solution and compare it to a battery of stock sucrose solutions ranging from 3% to 15% at increments of 1%. Each panel member decides which sucrose solution is equisweet with the solution containing the compound of interest. The mean value is then reported as the SEV. Results are reported to 1 decimal place.
In accordance with this methodology, 3-HB was added to a pH 3.2 buffered solution containing 5% sucrose to produce solutions containing from 0 to 1000 ppm 3-HB in 100 ppm increments. […] From FIG. 1 it is apparent that as the dosage of 3-HB increases so does the sweetness of the resultant solution. However the effect is non-linear with each incremental addition having a diminishing effect. The maximum sweetness attainable would appear to be about 7.9% SEV (based on a 5% sucrose solution).
The same methodology as described in Example 7 was repeated with 2,4-DHB in place of 3-HB, to produce the dose response curve for 2,4-DHB (FIG. 2). […] The maximum attainable sweetness would appear to be about 6.7% SEV (based on a 5% sucrose solution).
500 ppm of a sweetener potentiator was added to a pH 3.2 buffered solution containing 5% sucrose and the SEV of the resultant solution determined.
500 ppm of the sweetener potentiator then was added to a 5% sucrose solution containing 500 ppm 3-HB to produce a series of solutions. […] The use of 500 ppm of 3-HB alone results in an SEV of 6.9% whereas in all cases but two (2,4-DHB and 3,4-DHB) the addition of a second sweetener potentiator results in a little change or even a decrease in SEV. This is highly surprising considering that all of the potentiators are shown to have SEVs greater than 5%.
The methodology was repeated to produce a series of solutions containing 500 ppm 2,4-DHB and 500 ppm of a second sweetener potentiator.
500 ppm of 3-HB, 500 ppm of 2,4-DHB and 500 ppm of 3,4-dihydroxybenzoic acid (3,4-DHB) were added to a pH 3.2 buffered solution containing 5% sucrose and the SEV determined. The results are shown in FIG. 7 together with other combinations of 3-HB, 2,4-DHB and 3,4-DHB for comparison. The solution containing the combination of 3-HB and 2,4-DHB (hatched) has a much higher SEV (8.7%) than the combination of either 3,4-DHB and 3-HB (7.6%) or the combination of 3,4-DHB and 2,4-DHB (6.8%). The three-way combination of the embodiment (hatched) is better still with an SEV of 9.8%.
pH 3.2 buffered solutions were prepared containing 0%, 3%, 5%, 7% and 9% sucrose. 500 ppm of 2,4-DHB acid, 500 ppm of the sodium salt of 2,4-DHB and 500 ppm of the potassium salt of 2,4-DHB were added individually to each of the sucrose solutions. The SEV for each of the solutions was then determined.
The SEV of each sweetener solution was then evaluated after the addition 500 ppm of 3-HB, the addition of 500 ppm of 2,4-DHB and the addition of both 500 ppm 3-HB and 2,4-DHB.
500 ppm of 3-aminobenzoic acid and 500 ppm of 4-aminobenzoic acid were individually added to separate pH 3.2 buffered solutions containing 5% sucrose and the SEVs of the resultant solutions were determined. The SEV of 3-aminobenzoic acid was about 7%, i.e., increased the sweetness intensity of 5% sucrose to about 7%. The SEV of 4-aminobenzoic acid was about 5.5-6%, i.e., increased the sweetness intensity of 5% sucrose to about 5.5-6%.

[1] = cited from earlier work

SMILES | effect on sweetness of sucrose solution (dose response curve) (expert panel members) | effect on sweetness (SEV) of sucrose solutions, comparison of forms (expert panel members) | SEV (%) (expert panel members) | further results
O=C(O)c1ccc(O)cc1O [2,4-DHB, 2,4-dihydroxybenzoic acid] | enhances the sweetness of the sucrose solution | enhances the sweetness of the sucrose solution in every case |  | effect on sweetness of 5% sucrose solution ([1]; 0.2% 2,4-DHB, Canadian Patent No. 1208966): increase in sweetness; effect on sweetness intensity of sucralose and aspartame ([1]; FIGS. 1 and 2 and Tables 1 and 2 of U.S. Pat. No. 6,461,658): slightly inhibitory effect; effect on sweetness delivery profile of sucralose ([1]; U.S. Pat. No. 6,461,658): significantly reducing the length of time during which sucralose sweetness is perceived; effect on sweetness with aspartame ([1]; WO99/15032): increase sweetness synergistically
O=C(O)c1cc(O)c(O)c(O)c1 [3,4,5-THB, 3,4,5-tryhydroxybenzoic acid] |  |  | 5.1% | 
O=C(O)c1ccc(O)c(O)c1 [3,4-DHB, 3,4-dihydroxybenzoic acid] |  |  | 6.4% | 
O=C(O)c1cccc(O)c1 [3-HB, 3-hydroxybenzoic acid] | enhances the sweetness of the sucrose solution |  |  | effect on sweetness of saccharin solution (expert panel members; 500 ppm, pH 3.2 saccharin solution of SEV about 5%): enhances the sweetness to a greater degree alone than in combination with 2,4-DHB
O=C([O-])c1ccc(O)cc1O.[K+] [potassium salt of 2,4-DHB] |  | enhances the sweetness of the sucrose solution in every case |  | 
O=C([O-])c1ccc(O)cc1O.[Na+] [sodium salt of 2,4-DHB] |  | enhances the sweetness of the sucrose solution in every case |  | 
